Here are results for 5 molecules from BindingDB's records for doi:10.1016/j.chembiol.2016.10.011 (H. Lee Moffitt Cancer Center & Research Institute, 2016).

Experiment [1] has as its target T1, GDH/6PGL endoplasmic bifunctional protein (Homo sapiens, UniProt O95479).
T1 sequence (O95479 whole entry): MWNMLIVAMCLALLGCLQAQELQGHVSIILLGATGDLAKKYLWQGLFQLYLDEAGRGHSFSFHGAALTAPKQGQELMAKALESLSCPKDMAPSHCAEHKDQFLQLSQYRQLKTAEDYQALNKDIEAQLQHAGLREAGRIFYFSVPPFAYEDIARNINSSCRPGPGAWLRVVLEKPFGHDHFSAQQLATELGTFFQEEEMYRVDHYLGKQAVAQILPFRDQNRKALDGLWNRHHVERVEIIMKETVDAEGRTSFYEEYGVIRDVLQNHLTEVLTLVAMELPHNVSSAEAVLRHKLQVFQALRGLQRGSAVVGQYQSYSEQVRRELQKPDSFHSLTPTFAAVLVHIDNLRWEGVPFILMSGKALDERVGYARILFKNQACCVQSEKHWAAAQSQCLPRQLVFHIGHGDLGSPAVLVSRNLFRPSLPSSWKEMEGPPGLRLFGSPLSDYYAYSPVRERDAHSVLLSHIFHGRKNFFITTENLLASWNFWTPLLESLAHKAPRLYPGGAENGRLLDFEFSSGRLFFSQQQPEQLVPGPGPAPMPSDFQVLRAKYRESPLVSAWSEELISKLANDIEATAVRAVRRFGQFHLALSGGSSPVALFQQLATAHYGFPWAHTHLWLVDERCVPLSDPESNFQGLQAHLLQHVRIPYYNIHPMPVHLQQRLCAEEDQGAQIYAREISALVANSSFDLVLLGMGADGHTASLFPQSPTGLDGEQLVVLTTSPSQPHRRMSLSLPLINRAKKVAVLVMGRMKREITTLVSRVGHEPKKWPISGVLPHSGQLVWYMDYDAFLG
Description: H6PD Activity Assay. As for the experimental part:
HEK293 H6PD-OE and HEK293 pellets were lysed and the lysate was quantified with the Bradford protein assay. Reaction mix containing galactose-6-phosphate (Gal6P) was combined with increasing concentrations of PARPi or DMSO. As an additional control, reaction mix without substrate was combined with HEK293 H6PD-OE lysate. Lysate from HEK293 or HEK293 H6PD-OE was added to each well to start the reactions. The absorbance at 340 nm (NADPH) was measured for 90 min at 10 min intervals. The 60 min data, which were within the linear range, was used for analysis. Background absorbance was subtracted and the H6PD activity of theHEK293 H6PD-OE lysates treated with PARPi was normalized to the DMSO control.

In experiment [2] the target is Poly [ADP-ribose] polymerase 1 (Homo sapiens, UniProt P09874). Description: In Vitro PARP1 Activity Assay. As for the experimental part: Inhibition of PARP1 was assessed using the Universal Chemiluminescent PARPKit. Luminescence readings were normalized to controls and fit to a sigmoidaldose-response curve using GraphPad Prism 6 to determine IC50 values.
Chain of Poly [ADP-ribose] polymerase 1 (P09874 whole entry): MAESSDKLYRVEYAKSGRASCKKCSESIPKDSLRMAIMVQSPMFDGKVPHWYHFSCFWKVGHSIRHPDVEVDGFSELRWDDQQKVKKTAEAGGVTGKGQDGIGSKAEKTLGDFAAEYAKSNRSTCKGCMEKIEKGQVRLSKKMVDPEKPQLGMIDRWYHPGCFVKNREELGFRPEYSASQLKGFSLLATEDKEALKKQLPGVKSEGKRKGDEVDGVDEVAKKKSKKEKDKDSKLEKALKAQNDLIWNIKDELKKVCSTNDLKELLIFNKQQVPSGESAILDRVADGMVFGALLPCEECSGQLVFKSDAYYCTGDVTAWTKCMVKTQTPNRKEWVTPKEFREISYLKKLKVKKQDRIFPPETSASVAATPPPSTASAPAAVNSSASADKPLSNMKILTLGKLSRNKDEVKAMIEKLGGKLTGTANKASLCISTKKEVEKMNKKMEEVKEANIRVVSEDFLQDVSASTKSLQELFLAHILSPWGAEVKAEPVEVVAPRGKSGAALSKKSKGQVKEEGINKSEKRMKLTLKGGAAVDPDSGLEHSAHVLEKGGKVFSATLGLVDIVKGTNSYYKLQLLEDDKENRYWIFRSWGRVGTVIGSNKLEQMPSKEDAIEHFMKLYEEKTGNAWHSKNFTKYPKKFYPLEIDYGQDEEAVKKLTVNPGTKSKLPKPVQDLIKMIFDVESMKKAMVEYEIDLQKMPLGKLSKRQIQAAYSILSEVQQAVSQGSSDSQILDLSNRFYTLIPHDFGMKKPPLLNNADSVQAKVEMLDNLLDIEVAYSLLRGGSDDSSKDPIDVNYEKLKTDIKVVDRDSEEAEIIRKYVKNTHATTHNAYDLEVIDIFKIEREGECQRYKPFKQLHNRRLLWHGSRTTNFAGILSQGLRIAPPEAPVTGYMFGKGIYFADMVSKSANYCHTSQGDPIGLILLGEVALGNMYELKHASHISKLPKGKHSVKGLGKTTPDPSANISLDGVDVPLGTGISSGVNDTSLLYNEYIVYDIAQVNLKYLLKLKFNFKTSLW

As for `CNCc1ccc(-c2[nH]c3cc(F)cc4c3c2CCNC4=O)cc1` [AG-014699], it took 18000 nM to reach half-maximal inhibition in experiment [1] (IC50).

The molecule `NCCCN1CCC[C@@H](c2ccc(-n3cc4cccc(C(N)=O)c4n3)cc2)C1` [c-Niraparib] returned an IC50 in experiment [2] of 48.4 nM. On the same count and under the same terms, the figure for `NCCCC(=O)N1CCN(C(=O)c2cc(Cc3n[nH]c(=O)c4ccccc34)ccc2F)CC1` [c-Olaparib] is 5.9 nM; for `CN(CCCN)Cc1ccc(-c2[nH]c3cc(F)cc4c3c2CCNC4=O)cc1` [c-Rucaparib] it is 4.4 nM. The same measure, in the same setting: next, `C[C@]1(c2nc3c(C(N)=O)cccc3[nH]2)CCCN1CCCN` [c-Veliparib]: 8.4 nM.

What is called IC50 is the concentration needed to halve the response being measured. A low value points to inhibition by little substance.
